Test results reported in patent publication US11208412B2 (DAEGU-GYEONGBUK MEDICAL INNOVATION FOUNDATION, priority 2017, dated 2021).

Assays:
Experiment in all cases: Kinase selectivity, DiscoverX scanMAX Kinase assay panel (% control)
Assay type in all cases: binding
[1] = target: T1, kinases of the scanMAX Kinase assay panel (Homo sapiens, UniProt O14965); details: AURKA; 1 uM
T1 construct: purchased DiscoverX Co. (contract measurement) scanMAX Kinase assay panel
T1 sequence (O14965 1-403): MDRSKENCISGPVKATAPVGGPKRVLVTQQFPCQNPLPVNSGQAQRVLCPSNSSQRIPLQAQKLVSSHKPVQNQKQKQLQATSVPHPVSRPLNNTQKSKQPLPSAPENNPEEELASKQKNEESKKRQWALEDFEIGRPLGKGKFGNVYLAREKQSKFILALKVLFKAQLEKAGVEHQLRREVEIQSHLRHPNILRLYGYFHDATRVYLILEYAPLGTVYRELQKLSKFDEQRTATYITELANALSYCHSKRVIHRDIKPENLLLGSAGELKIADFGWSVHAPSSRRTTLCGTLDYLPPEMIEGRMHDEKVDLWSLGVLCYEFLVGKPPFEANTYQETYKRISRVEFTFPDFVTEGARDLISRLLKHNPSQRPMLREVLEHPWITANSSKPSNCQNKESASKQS
In short: (§1)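 Single-point screen, 1 uM cpd in DMSO. % ctrl = (cpd − pos ctrl)/(neg ctrl − pos ctrl)×100; pos ctrl = 0%, DMSO neg ctrl = 100%. Hit cutoff <35%.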

[2] = target: T2, kinases of the scanMAX Kinase assay panel (Homo sapiens, UniProt P00519, F317L); details: 1 uM
T2 construct: purchased DiscoverX Co. (contract measurement) scanMAX Kinase assay panel
In short: as §1

[3] = target: T3, kinases of the scanMAX Kinase assay panel (Homo sapiens, UniProt P07949); details: kinase RET; 1 uM in DMSO
T3 construct: purchased DiscoverX Co. (contract measurement) scanMAX Kinase assay panel
In short: as §1

[4] = target: T4, kinases of the scanMAX Kinase assay panel (Homo sapiens, UniProt P42685); details: FRK; 1 uM
T4 construct: purchased DiscoverX Co. (contract measurement) scanMAX Kinase assay panel
In short: as §1

[5] = target: T5, kinases of the scanMAX Kinase assay panel (Homo sapiens, UniProt P45985); details: MEK4; 1 uM
T5 construct: purchased DiscoverX Co. (contract measurement) scanMAX Kinase assay panel
T5 sequence (P45985 1-399): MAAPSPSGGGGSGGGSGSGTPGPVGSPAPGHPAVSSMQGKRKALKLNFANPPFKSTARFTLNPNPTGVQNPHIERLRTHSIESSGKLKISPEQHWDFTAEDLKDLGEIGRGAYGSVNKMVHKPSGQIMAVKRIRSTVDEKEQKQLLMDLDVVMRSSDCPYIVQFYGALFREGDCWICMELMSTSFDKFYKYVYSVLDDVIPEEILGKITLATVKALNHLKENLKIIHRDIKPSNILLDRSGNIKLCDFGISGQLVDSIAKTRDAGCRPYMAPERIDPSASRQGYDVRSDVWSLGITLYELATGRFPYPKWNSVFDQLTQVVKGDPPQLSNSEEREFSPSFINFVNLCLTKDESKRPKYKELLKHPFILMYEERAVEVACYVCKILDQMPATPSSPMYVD
In short: as §1

[6] = target: T6, kinases of the scanMAX Kinase assay panel (Homo sapiens, UniProt P53355); details: DAPK1; 1 uM
T6 construct: purchased DiscoverX Co. (contract measurement) scanMAX Kinase assay panel
In short: as §1

[7] = target: T7, kinases of the scanMAX Kinase assay panel (Homo sapiens, UniProt Q13470); details: kinase TNK1; 1 uM in DMSO
T7 construct: purchased DiscoverX Co. (contract measurement) scanMAX Kinase assay panel
T7 sequence (Q13470 1-666): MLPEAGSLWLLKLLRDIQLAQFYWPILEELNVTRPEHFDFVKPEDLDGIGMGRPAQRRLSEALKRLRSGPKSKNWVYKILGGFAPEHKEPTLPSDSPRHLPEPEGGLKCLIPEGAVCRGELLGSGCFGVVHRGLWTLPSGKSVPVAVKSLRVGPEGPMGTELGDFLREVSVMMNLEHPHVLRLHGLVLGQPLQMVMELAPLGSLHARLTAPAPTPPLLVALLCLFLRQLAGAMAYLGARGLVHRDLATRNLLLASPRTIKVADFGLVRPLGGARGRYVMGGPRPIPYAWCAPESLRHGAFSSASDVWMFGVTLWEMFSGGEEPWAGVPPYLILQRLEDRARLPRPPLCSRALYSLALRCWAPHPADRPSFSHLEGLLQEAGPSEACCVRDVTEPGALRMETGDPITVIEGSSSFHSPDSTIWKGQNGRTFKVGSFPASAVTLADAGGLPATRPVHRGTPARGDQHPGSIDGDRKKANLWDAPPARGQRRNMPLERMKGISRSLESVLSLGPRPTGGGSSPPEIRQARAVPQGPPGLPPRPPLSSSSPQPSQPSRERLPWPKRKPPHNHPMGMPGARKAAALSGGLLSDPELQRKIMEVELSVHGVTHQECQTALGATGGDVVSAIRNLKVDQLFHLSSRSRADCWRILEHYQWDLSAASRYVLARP
In short: as §1

[8] = target: T8, kinases of the scanMAX Kinase assay panel (Homo sapiens, UniProt Q6P2M8); details: CAMK1B; 1 uM
T8 construct: purchased DiscoverX Co. (contract measurement) scanMAX Kinase assay panel
In short: as §1

[9] = target: T9, kinases of the scanMAX Kinase assay panel (Homo sapiens, UniProt Q9P286); details: PAK7; 1 uM
T9 construct: purchased DiscoverX Co. (contract measurement) scanMAX Kinase assay panel
In short: as §1

T4 sequence (P42685 whole entry): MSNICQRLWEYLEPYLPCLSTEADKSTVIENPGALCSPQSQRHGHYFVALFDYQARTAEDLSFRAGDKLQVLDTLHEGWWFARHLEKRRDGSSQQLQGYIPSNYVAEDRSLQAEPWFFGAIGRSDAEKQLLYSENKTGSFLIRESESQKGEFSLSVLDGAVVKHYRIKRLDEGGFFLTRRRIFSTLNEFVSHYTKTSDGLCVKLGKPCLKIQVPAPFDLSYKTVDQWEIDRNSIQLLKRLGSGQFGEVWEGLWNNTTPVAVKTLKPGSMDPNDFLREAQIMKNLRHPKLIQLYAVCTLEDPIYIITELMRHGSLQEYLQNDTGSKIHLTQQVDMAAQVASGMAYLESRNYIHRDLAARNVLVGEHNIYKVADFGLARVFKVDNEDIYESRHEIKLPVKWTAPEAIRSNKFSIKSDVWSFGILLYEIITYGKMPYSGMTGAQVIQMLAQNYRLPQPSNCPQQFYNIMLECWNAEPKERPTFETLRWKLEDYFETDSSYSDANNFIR
T3 sequence (P07949 29-1114): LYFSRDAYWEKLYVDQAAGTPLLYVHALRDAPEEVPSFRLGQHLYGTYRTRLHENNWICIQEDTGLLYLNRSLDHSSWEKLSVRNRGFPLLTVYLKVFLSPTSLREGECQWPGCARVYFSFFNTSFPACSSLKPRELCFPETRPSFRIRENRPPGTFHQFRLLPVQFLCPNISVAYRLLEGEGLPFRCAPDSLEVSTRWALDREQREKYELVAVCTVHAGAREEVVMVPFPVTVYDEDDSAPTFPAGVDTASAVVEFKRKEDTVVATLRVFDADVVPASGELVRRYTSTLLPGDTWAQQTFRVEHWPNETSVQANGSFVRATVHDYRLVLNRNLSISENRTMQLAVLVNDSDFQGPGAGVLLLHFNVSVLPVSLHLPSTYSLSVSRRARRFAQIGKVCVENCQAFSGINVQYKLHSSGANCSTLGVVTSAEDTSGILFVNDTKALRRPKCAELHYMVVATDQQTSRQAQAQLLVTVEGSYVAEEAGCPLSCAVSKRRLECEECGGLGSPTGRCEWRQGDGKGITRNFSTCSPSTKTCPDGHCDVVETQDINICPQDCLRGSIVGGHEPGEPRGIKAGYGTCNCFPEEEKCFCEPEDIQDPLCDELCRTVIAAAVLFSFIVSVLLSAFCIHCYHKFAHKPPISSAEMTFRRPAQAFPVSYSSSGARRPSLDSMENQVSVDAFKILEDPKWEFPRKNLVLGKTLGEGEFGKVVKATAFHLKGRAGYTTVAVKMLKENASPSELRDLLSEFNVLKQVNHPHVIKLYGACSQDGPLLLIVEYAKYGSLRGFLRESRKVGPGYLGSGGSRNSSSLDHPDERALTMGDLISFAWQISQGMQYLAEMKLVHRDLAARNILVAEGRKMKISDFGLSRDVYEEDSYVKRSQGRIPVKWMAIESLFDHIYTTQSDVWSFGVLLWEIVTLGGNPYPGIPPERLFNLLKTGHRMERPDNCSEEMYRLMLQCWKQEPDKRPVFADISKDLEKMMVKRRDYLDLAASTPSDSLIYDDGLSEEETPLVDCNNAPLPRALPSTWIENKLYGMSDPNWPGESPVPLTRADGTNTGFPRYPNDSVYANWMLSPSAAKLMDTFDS
T8 sequence (Q6P2M8 whole entry): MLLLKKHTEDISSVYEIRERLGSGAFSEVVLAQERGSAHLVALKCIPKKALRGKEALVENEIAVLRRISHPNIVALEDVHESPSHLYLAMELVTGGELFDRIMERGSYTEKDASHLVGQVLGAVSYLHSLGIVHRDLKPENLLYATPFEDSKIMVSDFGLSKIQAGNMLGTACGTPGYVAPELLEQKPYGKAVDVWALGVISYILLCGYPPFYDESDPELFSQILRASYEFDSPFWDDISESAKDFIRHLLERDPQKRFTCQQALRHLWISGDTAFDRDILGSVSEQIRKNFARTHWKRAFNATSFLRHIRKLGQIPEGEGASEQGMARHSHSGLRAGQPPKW
T6 sequence (P53355 whole entry): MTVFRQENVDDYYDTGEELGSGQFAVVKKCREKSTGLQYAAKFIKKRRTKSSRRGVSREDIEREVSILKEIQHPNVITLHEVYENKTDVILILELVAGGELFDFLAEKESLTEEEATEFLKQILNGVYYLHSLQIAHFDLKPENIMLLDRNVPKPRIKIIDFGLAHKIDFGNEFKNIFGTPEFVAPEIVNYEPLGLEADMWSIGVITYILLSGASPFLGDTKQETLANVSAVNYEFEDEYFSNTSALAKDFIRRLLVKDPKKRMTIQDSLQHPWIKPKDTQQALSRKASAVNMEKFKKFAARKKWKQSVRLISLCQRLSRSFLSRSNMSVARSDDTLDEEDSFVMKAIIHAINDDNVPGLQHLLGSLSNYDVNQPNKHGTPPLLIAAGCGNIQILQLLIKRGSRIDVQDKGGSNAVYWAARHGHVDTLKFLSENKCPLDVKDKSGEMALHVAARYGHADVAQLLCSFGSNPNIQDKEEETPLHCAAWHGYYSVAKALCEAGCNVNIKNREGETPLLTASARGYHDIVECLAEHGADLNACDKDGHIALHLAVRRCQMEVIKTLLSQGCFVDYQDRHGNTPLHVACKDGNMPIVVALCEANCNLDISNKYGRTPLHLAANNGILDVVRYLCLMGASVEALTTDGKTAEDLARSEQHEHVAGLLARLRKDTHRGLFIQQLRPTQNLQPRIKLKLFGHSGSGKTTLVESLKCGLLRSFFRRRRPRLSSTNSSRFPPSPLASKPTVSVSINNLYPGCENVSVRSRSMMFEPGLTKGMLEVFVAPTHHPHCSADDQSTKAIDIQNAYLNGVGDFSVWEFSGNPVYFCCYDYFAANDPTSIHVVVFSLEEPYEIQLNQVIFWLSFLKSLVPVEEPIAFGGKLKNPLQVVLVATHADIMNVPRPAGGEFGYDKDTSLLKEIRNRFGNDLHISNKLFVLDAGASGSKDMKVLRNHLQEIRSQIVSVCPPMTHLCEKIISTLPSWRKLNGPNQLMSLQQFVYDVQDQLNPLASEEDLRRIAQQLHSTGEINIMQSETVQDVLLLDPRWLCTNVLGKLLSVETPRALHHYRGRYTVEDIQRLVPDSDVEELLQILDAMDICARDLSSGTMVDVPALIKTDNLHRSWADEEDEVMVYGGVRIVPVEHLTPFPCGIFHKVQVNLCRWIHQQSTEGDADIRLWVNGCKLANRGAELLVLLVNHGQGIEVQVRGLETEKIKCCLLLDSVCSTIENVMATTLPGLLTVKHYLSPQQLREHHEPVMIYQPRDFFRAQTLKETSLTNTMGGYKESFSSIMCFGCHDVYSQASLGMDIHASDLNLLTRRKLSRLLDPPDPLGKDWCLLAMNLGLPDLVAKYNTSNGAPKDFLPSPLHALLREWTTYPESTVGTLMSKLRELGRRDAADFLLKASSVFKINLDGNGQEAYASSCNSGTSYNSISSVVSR
T2 sequence (P00519 whole entry F317L): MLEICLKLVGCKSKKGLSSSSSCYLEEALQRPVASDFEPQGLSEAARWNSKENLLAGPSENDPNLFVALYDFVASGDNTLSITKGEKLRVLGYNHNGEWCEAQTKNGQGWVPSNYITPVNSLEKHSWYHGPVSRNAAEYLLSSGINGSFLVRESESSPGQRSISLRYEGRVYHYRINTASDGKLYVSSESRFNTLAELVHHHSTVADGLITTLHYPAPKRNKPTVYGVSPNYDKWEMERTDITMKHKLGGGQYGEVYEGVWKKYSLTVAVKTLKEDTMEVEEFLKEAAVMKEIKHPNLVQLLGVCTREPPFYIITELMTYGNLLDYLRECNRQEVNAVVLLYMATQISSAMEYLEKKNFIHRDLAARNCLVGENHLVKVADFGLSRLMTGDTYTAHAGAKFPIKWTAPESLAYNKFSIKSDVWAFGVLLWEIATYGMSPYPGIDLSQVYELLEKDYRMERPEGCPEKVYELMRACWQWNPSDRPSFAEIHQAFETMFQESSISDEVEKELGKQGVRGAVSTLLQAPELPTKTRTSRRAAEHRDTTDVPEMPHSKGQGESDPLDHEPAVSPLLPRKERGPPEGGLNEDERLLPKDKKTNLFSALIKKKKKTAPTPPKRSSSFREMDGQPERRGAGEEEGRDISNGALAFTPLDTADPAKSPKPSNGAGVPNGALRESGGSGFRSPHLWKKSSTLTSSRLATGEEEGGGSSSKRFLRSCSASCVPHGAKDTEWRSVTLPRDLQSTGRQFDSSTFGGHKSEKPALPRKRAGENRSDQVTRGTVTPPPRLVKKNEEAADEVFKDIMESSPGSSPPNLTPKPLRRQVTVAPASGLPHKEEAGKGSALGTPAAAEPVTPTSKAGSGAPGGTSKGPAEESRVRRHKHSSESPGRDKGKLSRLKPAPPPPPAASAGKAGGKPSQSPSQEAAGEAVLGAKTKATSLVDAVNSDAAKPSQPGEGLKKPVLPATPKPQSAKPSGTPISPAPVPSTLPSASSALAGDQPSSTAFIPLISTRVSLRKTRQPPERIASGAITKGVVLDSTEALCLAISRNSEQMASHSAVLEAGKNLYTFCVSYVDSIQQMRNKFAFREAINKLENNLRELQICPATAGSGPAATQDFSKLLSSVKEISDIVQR

Row | Compound | remaining binding at 1 µM [1] [%] | remaining binding at 1 µM ([2]; ABL1(F317L)-nonphosphorylated) [%] | remaining binding at 1 µM ([2]; ABL1(F317L)-phosphorylated) [%] | remaining binding at 1 µM [3] [%] | remaining binding at 1 µM [4] [%] | remaining binding at 1 µM [5] [%] | remaining binding at 1 µM [6] [%] | remaining binding at 1 µM [7] [%] | remaining binding at 1 µM [8] [%] | remaining binding at 1 µM [9] [%]
1 | CCNc1nc(Nc2ccc(C(=O)N3CCC(N4CCOCC4)CC3)cc2OC)nc2[nH]cc(C(F)(F)F)c12 [Example 104, (4-((4-(ethylamino)-5-(trifluoromethyl)-7H-pyrrolo[2,3-d]pyrimidine-2-yl)amino)-3-methoxyphenyl)(4-morpholinopiperidine-1-yl)methanone] | 87 | 74 | 35 | 98 | 77 | 16 | 49 | 16 | 21 | 85
2 | CC1(Nc2nc(Nc3cnn([C@H]4CCN(C5COC5)C[C@@H]4F)c3Cl)nc3[nH]cc(C#N)c23)CC1 [Example 52, 2-((5-chloro-1-((3S,4S)-3-fluoro-1-(oxetane-3-yl)piperidine-4-yl)-1H-pyrazole-4-yl)amino)((1-methylcyclopropyl)amino)-7H-pyrrolo[2,3-d]pyrimidine-5-carbonitrile] | 0.85 | 16 | 0 | 0 | 49 | 0 | 12 | 18 | 64 | 0.25
3 | CNc1nc(Nc2ccc(C(=O)N3CCOCC3)cc2OC)nc2[nH]cc(C#N)c12 [Example 1, 2-((2-methoxy-4-(morpholine-4-carbonyl)phenyl)amino)-4-(methylamino)-7H-pyrrolo[2,3-d]pyrimidine-5-carbonitrile] | 99 | 91 | 48 | 97 | 97 | 0 | 8.5 | 85 | 45 | 91
